Data as given in US11878965B2, “Inhibitors of peptidylarginine deiminases” (Gilead Sciences, Inc., priority 2020, dated 2024).

Molecular target: human PAD4 (Homo sapiens (Human), UniProt Q9UM07)
Experiment: In Vitro PAD4 BAEE Biochemical Assay
Conditions: human PAD4, BAEE substrate; 5 nM PAD4, 2 mM calcium chloride, 3 mM BAEE; geometric mean of multiple experiments
Outline: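 Deimination of BAEE substrate (3 mM) measured as ammonia via o-phthalaldehyde–DTT isoindole fluorescence, 405/535 nm. Tag-free bacterially expressed human PAD4 at 5 nM with 2 mM calcium chloride, pH 7.6 MOPS buffer, 30 min compound preincubation then 2 h reaction, both at 25 °C.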

Sequence of human PAD4 (Q9UM07 2-663): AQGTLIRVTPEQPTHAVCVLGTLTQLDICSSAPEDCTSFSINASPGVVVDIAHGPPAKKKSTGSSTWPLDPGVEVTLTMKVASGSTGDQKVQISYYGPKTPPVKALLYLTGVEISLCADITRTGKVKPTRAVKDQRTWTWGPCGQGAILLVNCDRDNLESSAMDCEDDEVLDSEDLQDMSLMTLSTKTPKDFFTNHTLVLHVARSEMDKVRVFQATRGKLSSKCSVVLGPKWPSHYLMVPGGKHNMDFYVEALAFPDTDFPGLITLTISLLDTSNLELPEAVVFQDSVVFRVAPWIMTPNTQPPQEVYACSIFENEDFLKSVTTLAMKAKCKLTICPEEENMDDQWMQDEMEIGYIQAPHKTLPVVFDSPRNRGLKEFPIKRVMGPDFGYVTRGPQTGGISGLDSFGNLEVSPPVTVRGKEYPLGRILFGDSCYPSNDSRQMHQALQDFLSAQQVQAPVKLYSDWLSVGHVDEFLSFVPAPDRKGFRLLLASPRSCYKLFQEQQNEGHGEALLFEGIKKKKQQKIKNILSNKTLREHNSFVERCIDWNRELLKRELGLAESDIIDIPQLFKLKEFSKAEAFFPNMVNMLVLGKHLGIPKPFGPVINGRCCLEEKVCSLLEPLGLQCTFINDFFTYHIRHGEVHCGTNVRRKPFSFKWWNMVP

Structure (SMILES) | IC50 [µM]
COc1cc(C(=O)N2C[C@H](N)CCN2C)cc2nc(-c3cc4ccc([C@@H](C)NC(=O)c5c(C)cccc5C(F)(F)F)nc4n3CC3CC3)n(C)c12 [Example 184, N-((R)-1-(2-(5-((R)-5-amino-2-methylhexahydropyridazine-1-carbonyl)-7-methoxy-1-methyl-1H-benzo[d]imidazol-2-yl)-1-(cyclopropylmethyl)-1H-pyrrolo[2,3-b]pyridin-6-yl)ethyl)-2-methyl-6-(trifluoromethyl)benzamide] | 0.204
COc1cc(C(=O)N2C[C@H](N)CCN2C)cc2nc(-c3cc4ccc([C@@H](C)NC(=O)C56CC(C5)C6)nc4n3CC3CC3)n(C)c12 [Example 185, N-((R)-1-(2-(5-((R)-5-amino-2-methylhexahydropyridazine-1-carbonyl)-7-methoxy-1-methyl-1H-benzo[d]imidazol-2-yl)-1-(cyclopropylmethyl)-1H-pyrrolo[2,3-b]pyridin-6-yl)ethyl)bicyclo[1.1.1]pentane-1-carboxamide] | 0.0821
COc1cc(C(=O)N2C[C@H](N)CCN2C)cc2nc(-c3cc4ccc([C@@H](C)NC(=O)C56CC(Cl)(C5)C6)nc4n3CC3CC3)n(C)c12 [Example 186, N—((R)-1-(2-(5-((R)-5-amino-2-methylhexahydropyridazine-1-carbonyl)-7-methoxy-1-methyl-1H-benzo[d]imidazol-2-yl)-1-(cyclopropylmethyl)-1H-pyrrolo[2,3-b]pyridin-6-yl)ethyl)-3-chlorobicyclo[1.1.1]pentane-1-carboxamide] | 0.105
[2H]C([2H])([2H])C(C(=O)N[C@H](C)c1ccc2cc(-c3nc4cc(C(=O)N5C[C@H](N)CCN5C)cc(OC)c4n3C)n(CC3CC3)c2n1)(C([2H])([2H])[2H])C([2H])([2H])[2H] [Example 189, N-((R)-1-(2-(5-((R)-5-amino-2-methylhexahydropyridazine-1-carbonyl)-7-methoxy-1-methyl-1H-benzo[d]imidazol-2-yl)-1-(cyclopropylmethyl)-1H-pyrrolo[2,3-b]pyridin-6-yl)ethyl)-2,2-bis(methyl-d3)propanamide] | 0.0922
COc1cc(C(=O)N2C[C@H](N)CCN2C)cc2nc(-c3cc4ccc([C@@H](C)NC(=O)C5(CF)CC5)nc4n3CC3CC3)n(C)c12 [Example 190, N-((R)-1-(2-(5-((R)-5-amino-2-methylhexahydropyridazine-1-carbonyl)-7-methoxy-1-methyl-1H-benzo[d]imidazol-2-yl)-1-(cyclopropylmethyl)-1H-pyrrolo[2,3-b]pyridin-6-yl)ethyl)-1-(fluoromethyl)cyclopropane-1-carboxamide] | 0.0897
COc1cc(C(=O)N2C[C@H](N)CCN2C)cc2nc(-c3cc4ccc([C@@H](C)NC(=O)C5(C(F)(F)F)CC5)nc4n3CC3CC3)n(C)c12 [Example 192, N-((R)-1-(2-(5-((R)-5-amino-2-methylhexahydropyridazine-1-carbonyl)-7-methoxy-1-methyl-1H-benzo[d]imidazol-2-yl)-1-(cyclopropylmethyl)-1H-pyrrolo[2,3-b]pyridin-6-yl)ethyl)-1-(trifluoromethyl)cyclopropane-1-carboxamide] | 0.174
COc1cc(C(=O)N2C[C@H](N)CCN2C)cc2nc(-c3cc4ccc([C@@H](C)NC(=O)c5ccccc5C)nc4n3CC3CC3)n(C)c12 [Example 194, N-((R)-1-(2-(5-((R)-5-amino-2-methylhexahydropyridazine-1-carbonyl)-7-methoxy-1-methyl-1H-benzo[d]imidazol-2-yl)-1-(cyclopropylmethyl)-1H-pyrrolo[2,3-b]pyridin-6-yl)ethyl)-2-methylbenzamide] | 0.123
COc1cc(C(=O)N2C[C@H](N)CCN2C)cc2nc(-c3cc4ccc([C@@H](C)NC(=O)c5ccccc5C(F)(F)F)nc4n3CC3CC3)n(C)c12 [Example 196, N-((R)-1-(2-(5-((R)-5-amino-2-methylhexahydropyridazine-1-carbonyl)-7-methoxy-1-methyl-1H-benzo[d]imidazol-2-yl)-1-(cyclopropylmethyl)-1H-pyrrolo[2,3-b]pyridin-6-yl)ethyl)-2-(trifluoromethyl)benzamide] | 0.129
COc1cc(C(=O)N2C[C@H](N)CCN2C)cc2nc(-c3cc4ccc([C@@H](C)NC(=O)c5c(F)cccc5C(F)(F)F)nc4n3CC3CC3)n(C)c12 [Example 198, N-((R)-1-(2-(5-((R)-5-amino-2-methylhexahydropyridazine-1-carbonyl)-7-methoxy-1-methyl-1H-benzo[d]imidazol-2-yl)-1-(cyclopropylmethyl)-1H-pyrrolo[2,3-b]pyridin-6-yl)ethyl)-2-fluoro-6-(trifluoromethyl)benzamide] | 0.166

More lines, in order of falling IC50, values ahead:

IC50 [µM] | Structure (SMILES)
0.34 | COc1cc(C(=O)N2C[C@H](N)CCN2C)cc2nc(-c3cc4ccc([C@@H](C)NC(=O)C5(c6ccc(F)cc6)CC5)nc4n3CC3CC3)n(C)c12 [Example 199, N-((R)-1-(2-(5-((R)-5-amino-2-methylhexahydropyridazine-1-carbonyl)-7-methoxy-1-methyl-1H-benzo[d]imidazol-2-yl)-1-(cyclopropylmethyl)-1H-pyrrolo[2,3-b]pyridin-6-yl)ethyl)-1-(4-fluorophenyl)cyclopropane-1-carboxamide]
0.198 | COc1cc(C(=O)N2C[C@H](N)CCN2C)cc2nc(-c3cc4ccc([C@@H](C)NC(=O)c5nc(C)cc(C(F)(F)F)n5)nc4n3CC3CC3)n(C)c12 [Example 183, N-((R)-1-(2-(5-((R)-5-amino-2-methylhexahydropyridazine-1-carbonyl)-7-methoxy-1-methyl-1H-benzo[d]imidazol-2-yl)-1-(cyclopropylmethyl)-1H-pyrrolo[2,3-b]pyridin-6-yl)ethyl)-4-methyl-6-(trifluoromethyl)pyrimidine-2-carboxamide]
0.149 | COc1cc(C(=O)N2C[C@H](N)CCN2C)cc2nc(-c3cc4ccc([C@@H](C)NC(=O)C56CC(C(F)(F)F)(C5)C6)nc4n3CC3CC3)n(C)c12 [Example 188, N-((R)-1-(2-(5-((R)-5-amino-2-methylhexahydropyridazine-1-carbonyl)-7-methoxy-1-methyl-1H-benzo[d]imidazol-2-yl)-1-(cyclopropylmethyl)-1H-pyrrolo[2,3-b]pyridin-6-yl)ethyl)-3-(trifluoromethyl)bicyclo [1.1.1]pentane-1-carboxamide]
0.142 | COc1cc(C(=O)N2C[C@H](N)CCN2C)cc2nc(-c3cc4ccc([C@@H](C)NC(=O)C5(CC(F)F)CC5)nc4n3CC3CC3)n(C)c12 [Example 193, N-((R)-1-(2-(5-((R)-5-amino-2-methylhexahydropyridazine-1-carbonyl)-7-methoxy-1-methyl-1H-benzo[d]imidazol-2-yl)-1-(cyclopropylmethyl)-1H-pyrrolo[2,3-b]pyridin-6-yl)ethyl)-1-(2,2-difluoroethyl)cyclopropane-1-carboxamide]
0.116 | COc1cc(C(=O)N2C[C@H](N)CCN2C)cc2nc(-c3cc4ccc([C@@H](C)NC(=O)c5cc(F)ccc5C)nc4n3CC3CC3)n(C)c12 [Example 197, N-((R)-1-(2-(5-((R)-5-amino-2-methylhexahydropyridazine-1-carbonyl)-7-methoxy-1-methyl-1H-benzo[d]imidazol-2-yl)-1-(cyclopropylmethyl)-1H-pyrrolo[2,3-b]pyridin-6-yl)ethyl)-5-fluoro-2-methylbenzamide]
0.104 | COc1cc(C(=O)N2C[C@H](N)CCN2C)cc2nc(-c3cc4ccc([C@@H](C)NC(=O)c5nccc(C(F)(F)F)n5)nc4n3CC3CC3)n(C)c12 [Example 182, N-((R)-1-(2-(5-((R)-5-amino-2-methylhexahydropyridazine-1-carbonyl)-7-methoxy-1-methyl-1H-benzo[d]imidazol-2-yl)-1-(cyclopropylmethyl)-1H-pyrrolo[2,3-b]pyridin-6-yl)ethyl)-4-(trifluoromethyl)pyrimidine-2-carboxamide]
0.102 | COc1cc(C(=O)N2C[C@H](N)CCN2C)cc2nc(-c3cc4ccc([C@@H](C)NC(=O)c5ccc(F)cc5C)nc4n3CC3CC3)n(C)c12 [Example 195, N-((R)-1-(2-(5-((R)-5-amino-2-methylhexahydropyridazine-1-carbonyl)-7-methoxy-1-methyl-1H-benzo[d]imidazol-2-yl)-1-(cyclopropylmethyl)-1H-pyrrolo[2,3-b]pyridin-6-yl)ethyl)-4-fluoro-2-methylbenzamide]
0.0969 | COc1cc(C(=O)N2C[C@H](N)CCN2C)cc2nc(-c3cc4ccc([C@@H](C)NC(=O)C56CC(C)(C5)C6)nc4n3CC3CC3)n(C)c12 [Example 187, N-((R)-1-(2-(5-((R)-5-amino-2-methylhexahydropyridazine-1-carbonyl)-7-methoxy-1-methyl-1H-benzo[d]imidazol-2-yl)-1-(cyclopropylmethyl)-1H-pyrrolo[2,3-b]pyridin-6-yl)ethyl)-3-methylbicyclo[1.1.1]pentane-1-carboxamide]
0.0824 | COc1cc(C(=O)N2C[C@H](N)CCN2C)cc2nc(-c3cc4ccc([C@@H](C)NC(=O)C5(C(F)F)CC5)nc4n3CC3CC3)n(C)c12 [Example 191, N-((R)-1-(2-(5-((R)-5-amino-2-methylhexahydropyridazine-1-carbonyl)-7-methoxy-1-methyl-1H-benzo[d]imidazol-2-yl)-1-(cyclopropylmethyl)-1H-pyrrolo[2,3-b]pyridin-6-yl)ethyl)-1-(difluoromethyl)cyclopropane-1-carboxamide]
0.0749 | COc1cc(C(=O)N2C[C@H](N)CCN2C)cc2nc(-c3cc4ccc([C@@H](C)NC(=O)c5nccc(C)n5)nc4n3CC3CC3)n(C)c12 [Example 181, N-((R)-1-(2-(5-((R)-5-amino-2-methylhexahydropyridazine-1-carbonyl)-7-methoxy-1-methyl-1H-benzo[d]imidazol-2-yl)-1-(cyclopropylmethyl)-1H-pyrrolo[2,3-b]pyridin-6-yl)ethyl)-4-methylpyrimidine-2-carboxamide]
